Test results as given in patent publication EP0760376A1, “PEPTIDES INHIBITING PHOSPHOLIPASE C” (Kyowa Hakko Kogyo Co., Ltd., priority 1995, dated 1996).
≈ marks a conversion by molar mass, not a printed value. Square brackets hold non-standard residues; d marks the D form. Peptide text beside a SMILES is read from it. * marks the point of attachment. 12Ado = NCCCCCCCCCCCC(=O)O; Aun = NCCCCCCCCCCC(=O)O; Butyryl = CCCC(=O)*

Columns and labels:
[1] = system: Enterococcus hirae ATCC 10541; test: Antibacterial activity, agar dilution method; type: cell-based; settings: pH 7
Protocol: (§1) The antibacterial activity was determined by the agar dilution method using a medium (pH 7.0) which comprises 3 g/l Bacto-tryptone (Difco Laboratories), 1 g/l meat extract, 1 g/l glucose and 16 g/l agar.

[2] = system: Pseudomonas aeruginosa Bin H No. 1; type: cell-based; settings: Bin H No. 1, pH 7
Protocol: as §1

[3] = system: Candida albicans ATCC 10231; type: cell-based; settings: ATCC 10231, pH 7
Protocol: as §1

[4] = system: Bacillus subtilis No. 10707; type: cell-based; settings: No. 10707, pH 7
Protocol: as §1

[5] = system: KMS-4 cells; test: Cell growth-inhibiting activity (BrdU incorporation, cell growth detection kit); type: cell-based; settings: Concentration 1 µM, culturing with peptide for 17 hours
Protocol: The cell growth-inhibiting activity was determined using a cell growth detection kit (Amersham) in the following manner. KMS-4 cells [M. Nanba et al, International Journal of Cancer, 32, 697 (1983)] were suspended in DMEM medium (Nissui Pharmaceutical Co., Ltd.) containing 10% fetal calf serum at a density of 1-2 x 10^4 cells/ml, and 1 ml of the cell suspension was put into each well of a 24-well plate (Corning Inc.). The cells were cultured in a CO2 incubator (37°C, 5% CO2) for 2 days. Then, the medium was replaced with a fresh DMEM medium containing 10% fetal calf serum, and the test peptide was added thereto, followed by culturing for 17 hours. The medium was replaced with a serum-free DMEM medium, and 0.5 ml of a solution prepared by diluting labeled reagent 5-bromo-2'-deoxyuridine (BrdU) and 5-fluoro-2'-deoxyuridine (FdU) (10:1) 1000-fold with the same medium was added to each well, followed by culturing for 2 hours. Then the medium was removed, and the cells were immobilized with an acetic acid/ethanol solution. The immobilized cells were stained according to the method for the cell growth detection kit of Amersham, and then further stained with a 1% Giemsa solution (Merck & Co., Inc.). The number of cells which incorporated BrdU and the total number of cells within one field of vision of a microscope (approximately 200 cells) were determined, and the proportion (%) of stained cells per field of vision was calculated. The above procedure was repeated 10 times, and the average value thereof was defined as the cell growth activity (%). The cell growth-inhibiting activity was calculated in the following manner. That is, the cell growth inhibition rate was calculated according to the following equation: X (%) = (1-B/A) x 100 [formula] where A is the growth activity when no peptide was added, and B is the growth activity when the test peptide was added.

[6] = system: Klebsiella pneumoniae ATCC 10031; test: Antibacterial activity, agar dilution method; type: cell-based; settings: medium pH 7.0
Protocol: as §1

[7] = target: T1, PLC-γ1 (Bos taurus, UniProt P08487); test: PLC-inhibiting activity (release of [3H]inositol phosphate from [3H]PIP2); type: biochemical, bovine; settings: 37°C, 10 minutes, pH 6.0, read-out: Inhibition rate (%)
T1 construct: A sample of PLC-γ1 was prepared from bovine thymus; from tissue; host or cells: bovine thymus
T1 sequence (P08487 1-1291): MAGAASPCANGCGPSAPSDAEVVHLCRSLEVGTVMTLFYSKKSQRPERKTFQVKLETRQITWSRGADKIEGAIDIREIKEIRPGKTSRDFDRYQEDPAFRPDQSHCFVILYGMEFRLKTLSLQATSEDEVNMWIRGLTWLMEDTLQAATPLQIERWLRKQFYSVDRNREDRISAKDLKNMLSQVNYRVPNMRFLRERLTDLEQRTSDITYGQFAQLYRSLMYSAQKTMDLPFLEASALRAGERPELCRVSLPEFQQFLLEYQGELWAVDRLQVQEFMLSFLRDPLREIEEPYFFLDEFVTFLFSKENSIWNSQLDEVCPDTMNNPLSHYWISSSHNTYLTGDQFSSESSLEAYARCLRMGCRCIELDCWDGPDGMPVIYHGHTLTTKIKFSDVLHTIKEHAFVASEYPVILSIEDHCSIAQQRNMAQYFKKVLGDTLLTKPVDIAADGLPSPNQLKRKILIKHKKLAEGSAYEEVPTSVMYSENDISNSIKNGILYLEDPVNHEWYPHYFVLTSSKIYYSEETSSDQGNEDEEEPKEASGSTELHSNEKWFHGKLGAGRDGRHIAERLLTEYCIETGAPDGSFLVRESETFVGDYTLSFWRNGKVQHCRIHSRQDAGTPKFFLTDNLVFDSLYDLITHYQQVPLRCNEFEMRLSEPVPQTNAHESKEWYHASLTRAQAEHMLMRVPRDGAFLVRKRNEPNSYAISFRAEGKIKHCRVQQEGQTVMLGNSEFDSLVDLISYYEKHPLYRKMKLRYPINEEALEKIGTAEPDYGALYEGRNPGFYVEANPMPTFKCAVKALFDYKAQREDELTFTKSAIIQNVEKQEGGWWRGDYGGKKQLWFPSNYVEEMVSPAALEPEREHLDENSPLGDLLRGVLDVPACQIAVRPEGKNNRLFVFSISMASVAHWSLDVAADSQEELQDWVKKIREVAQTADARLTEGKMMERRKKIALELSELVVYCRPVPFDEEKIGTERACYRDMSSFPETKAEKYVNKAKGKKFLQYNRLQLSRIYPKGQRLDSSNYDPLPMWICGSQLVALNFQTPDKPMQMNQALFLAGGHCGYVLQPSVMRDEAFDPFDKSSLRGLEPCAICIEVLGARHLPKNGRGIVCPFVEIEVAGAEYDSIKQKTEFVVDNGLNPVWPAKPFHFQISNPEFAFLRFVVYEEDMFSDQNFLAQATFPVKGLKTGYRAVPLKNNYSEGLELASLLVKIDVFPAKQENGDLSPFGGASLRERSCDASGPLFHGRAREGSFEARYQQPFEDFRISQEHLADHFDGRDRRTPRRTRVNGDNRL
Protocol: A sample of PLC-γ1 was prepared from bovine thymus according to the method described in Y. Honma et al., Biochem. J., 269, 13 (1990). A solution having the composition shown in Table 2 below was prepared on ice and was heated to 37°C to start reaction. After incubation for 10 minutes, 2 ml of a chloroform/methanol mixture (2:1, v/v) was added thereto to stop the reaction. The resulting inositol phosphate was extracted with 0.5 ml of 1 N hydrochloric acid. The extract was separated into two liquid phases by centrifugation (2000 x g, 3 minutes), and the amount of ^3H contained in the supernatant (0.7 ml) was measured with a scintillation counter. Table 2 [table] The inhibition rate (X) was calculated according to the following equation: X (%) = (A-C) / (B-C) x 100 [formula] where A is the obtained value of specific radioactivity, B is the value of specific radioactivity obtained when the same amount of water was added instead of the aqueous solution of the test peptide, and C is the value of specific radioactivity obtained when the same amount of water was added instead of the sample and the aqueous solution of the test peptide.

[8] = system: Staphylococcus aureus ATCC 6538P; type: cell-based; settings: pH 7
Protocol: as §1

[9] = system: Proteus vulgaris ATCC 6897; type: cell-based; settings: ATCC 6897, pH 7
Protocol: as §1

Row | Structure (SMILES) | MIC (µg/ml) EH [1] | MIC (µg/ml) PA [2] | MIC (µg/ml) CA [3] | MIC (µg/ml) BS [4] | Inhibition rate (%) [5] | MIC (µg/ml) KP [6] | inhibition at 116 µM ([7]; Concentration 116 µM (aqueous solution of test peptide provided for the test)) | MIC (µg/ml) SA [8] | MIC (µg/ml) PV [9] | inhibition at 23 µM ([7]; Concentration 23 µM (aqueous solution of test peptide provided for the test))
1 | CSCC[C@H](NC(=O)[C@H](CCCCN)NC(=O)[C@H](CCCNC(=N)N)NC(=O)[C@H](Cc1ccc(O)cc1)NC(=O)[C@H](CC(C)C)NC(C)=O)C(=O)N[C@@H](CCCNC(=N)N)C(=O)N[C@@H](CC(C)C)C(=O)N[C@@H](CCCNC(=N)N)C(=O)N[C@@H](Cc1ccc(O)cc1)C(=O)N1CCC[C@H]1C(=O)N[C@H](C(=O)NCCCCCCCCCCC(N)=O)C(C)C [Compound (I-6), CH3CO-Leu-Tyr-Arg-Lys-Met-Arg-Leu-Arg-Tyr-Pro-Val-NH-(CH2)10CONH2] (Ac-LYRKMRLRYPV[Aun]-NH2) | 171 µg/mL (≈ 99.5 µM) | 85 µg/mL (≈ 49.4 µM) | 171 µg/mL (≈ 99.5 µM) | 43 µg/mL (≈ 25 µM) | 57% | 43 µg/mL (≈ 25 µM) | 85% | 171 µg/mL (≈ 99.5 µM) | 43 µg/mL (≈ 25 µM) | 
2 | CCCC(=O)N[C@@H](CC(C)C)C(=O)N[C@@H](Cc1ccc(O)cc1)C(=O)N[C@@H](CCCNC(=N)N)C(=O)N[C@@H](CCCCN)C(=O)N[C@@H](CCSC)C(=O)N[C@@H](CCCNC(=N)N)C(=O)N[C@@H](CC(C)C)C(=O)N[C@@H](CCCNC(=N)N)C(=O)N[C@@H](Cc1ccc(O)cc1)C(=O)N1CCC[C@H]1C(=O)N[C@H](C(=O)NCCCCCCCCCCCC(N)=O)C(C)C [Compound (I-9), C3H7CO-Leu-Tyr-Arg-Lys-Met-Arg-Leu-Arg-Tyr-Pro-Val-NH-(CH2)11CONH2] (Butyryl-LYRKMRLRYPV[12Ado]-NH2) |  | 200 µg/mL (≈ 114 µM) |  | 50 µg/mL (≈ 28.4 µM) |  |  |  | 200 µg/mL (≈ 114 µM) | 100 µg/mL (≈ 56.8 µM) | 73%
